In patent EP0350260A2, “New oxamic acid compounds and pharmaceutical composition for use in improvement of damaged cerebral functions of brain” (MEIJI SEIKA KAISHA LTD., priority 1988, dated 1990):

System: mice having cerebral anoxia experimentally induced under the load of hypobaric hypoxia
Assay: Survival time of mice with cerebral anoxia induced under hypobaric hypoxia (Test 1)
Format: in vivo
Settings: 100 mg/kg intraperitoneally, 30 minutes before evacuation to 190 mmHg; 6 ddy mice per group; untreated control group = 100
Procedure: ddy Mice (6 weeks old, body weight: 25-30 g, each group comprising 6 ddy mice) were administered intraperitoneally with the compounds of the present invention, respectively. Each of the tested compounds of this invention had been beforehand dissolved in redistilled water and the aqueous solution was administered in an amount of 0.1 ml per 10 g body weight. Thirty minutes after the administration, the mice were individually placed in hermetic transparent containers. The containers were rapidly evacuated to 190 mmHg by means of a vacuum pump. Time was measured from the initiation of the evacuation to the death of each mouse due to respiratory failure. That time was recorded as the survival time (seconds) of mice.
The ratios of the survival time of the groups of the treated mice which received the administration of the tested compounds of this invention divided by the survival time of a control group (untreated) which received no administration of the drug were calculated.

| Compound | Survival time ratio (control group: 100) |
| --- | --- |
| CCCN(CCC)C(=O)C(=O)O [N,N-di-n-propyl-oxamic acid, N,N-di-n-propyloxamic acid] | 181 |
| CCCCN(CC)C(=O)C(=O)O [N-ethyl-N-butyl-oxamic acid, N-ethyl-N-n-butyloxamic acid] | 116 |
| C=CCN(CC=C)C(=O)C(=O)O [N,N-di-allyloxamic acid] | 187 |
| CC(C)N(C(=O)C(=O)O)C(C)C [N,N-di-isopropyl-oxamic acid, N,N-di-isopropyloxamic acid] | 155 |
| CCCN(CC)C(=O)C(=O)O [N-ethyl-N-n-propyl-oxamic acid, N-ethyl-N-n-propyloxamic acid] | 166 |

System: ddy mice
Assay: not given
Settings: mouse, in vivo
Procedure: The toxicity of the compounds of the general formula (I) usable in this invention was evaluated by using N,N-di-isopropyloxamic acid as one example.

| Compound | toxicity (survival of mice) |
| --- | --- |
| CC(C)N(C(=O)C(=O)O)C(C)C [N,N-di-isopropyl-oxamic acid, N,N-di-isopropyloxamic acid] | all the mice tolerated it and remained alive |
